# Data from patent US9271960B2, “Tetrahydrocarbazoles as active agents for inhibiting VEGF production by translational control” (PTC Therapeutics, Inc., priority 2004, dated 2016).
# Tested on: VEGF
# Assay: Hypoxia-inducible endogenous VEGF expression ELISA in HeLa cells
# Assay type: cell-based
# Conditions: Homo sapiens, HeLa, compounds 1-155, hypoxic conditions (1% O2), VEGF protein by ELISA, read-out: ELISA Activity
# Method: The ability of compounds of the invention to modulate hypoxia-inducible endogenous VEGF expression is analyzed as follows. VEGF protein levels are monitored by an ELISA assay (R&D Systems). Briefly, HeLa cells are cultured for 24-48 hours under hypoxic conditions (1% O2, 5% CO2, balanced with nitrogen) in the presence or absence of a compound of the invention. The conditioned media is then assayed by ELISA, and the concentration of VEGF is calculated from the standard ELISA curve of each assay.
# A dose-response analysis is performed using the ELISA assay and conditions described above. A series of different concentrations (e.g., seven) are analyzed. In parallel, a dose-response cytotoxicity assay is performed using Cell Titer Glo (Promega) under the same conditions as the ELISA to ensure that the inhibition of VEGF expression is not due to cytotoxicity. Dose-response curves are plotted using percentage inhibition versus concentration of the compound, and EC50 and CC50 values are generated for each compound with the maximal inhibition set as 100% and the minimal inhibition as 0%.
# Compounds 156-188 in Table 1 are commercially available. In Table 1, each of the represented compounds is followed by one to five stars.
row,Molecule,EC50 [nM]
1,"Brc1ccc2[nH]c3c(c2c1)CCCC3n1cc2ccsc2c1 (stereo not shown) [Compound 1, 6-Bromo-1-thieno[2,3-c]pyrrol-5-yl-2,3,4,9-tetrahydro-1H-carbazole]",< 10
2,"Brc1ccc2[nH]c3c(c2c1)CCCC3Nc1ccccc1 (stereo not shown) [Compound 2, (6-Bromo-2,3,4,9-tetrahydro-1H-carbazol-1-yl)-phenyl-amine]",< 10
3,"Clc1ccc(NC2CCCc3c2[nH]c2ccc(Br)cc32)cc1 (stereo not shown) [Compound 3, (6-Bromo-2,3,4,9-tetrahydro-1H-carbazol-1-yl)-(4-chloro-phenyl)-amine]",< 10
4,"COc1ccc(NC2CCCc3c2[nH]c2ccc(Br)cc32)cc1 (stereo not shown) [Compound 4, (6-Bromo-2,3,4,9-tetrahydro-1H-carbazol-1-yl)-(4-methoxy-phenyl)-amine]",< 10
5,"FC(F)(F)c1ccc(NC2CCCc3c2[nH]c2ccc(Br)cc32)cc1 (stereo not shown) [Compound 6, (6-Bromo-2,3,4,9-tetrahydro-1H-carbazol-1-yl)-(4-trifluoromethyl-phenyl)-amine]",< 10
6,"Brc1ccc2[nH]c3c(c2c1)CCCC3N1Cc2ccccc2C1 (stereo not shown) [Compound 7, 6-Bromo-1-(1,3-dihydro-isoindol-2-yl)-2,3,4,9-tetrahydro-1H-carbazole]",< 10
7,"CC(C)c1ccc(NC2CCCc3c2[nH]c2ccc(Br)cc32)cc1 (stereo not shown) [Compound 8, (6-Bromo-2,3,4,9-tetrahydro-1H-carbazol-1-yl)-(4-isopropyl-phenyl)-amine]",< 10
8,"COc1cccc(C2CCCc3c2[nH]c2ccc(Br)cc32)c1 (stereo not shown) [Compound 16, 6-Bromo-1-(3-methoxy-phenyl)-2,3,4,9-tetrahydro-1H-carbazole]",< 10
9,"Brc1ccc2[nH]c3c(c2c1)CCCC3Nc1ccc2c(c1)OCO2 (stereo not shown) [Compound 18, Benzo[1,3]dioxol-5-yl-(6-bromo-2,3,4,9-tetrahydro-1H-carbazol-1-yl)-amine]",< 10
10,"Clc1cccc(NC2CCCc3c2[nH]c2ccc(Br)cc32)c1 (stereo not shown) [Compound 20, (6-Bromo-2,3,4,9-tetrahydro-1H-carbol-1-yl)-(3-chloro-phenyl)-amine]",< 10
11,"Cc1cc(C)cc(NC2CCCc3c2[nH]c2ccc(Br)cc32)c1 (stereo not shown) [Compound 23, (6-Bromo-2,3,4,9-tetrahydro-1H-carbazol-1-yl)-(3,5-dimethyl-phenyl)-amine]",10 to 40
12,"Fc1ccc(NC2CCCc3c2[nH]c2ccc(Br)cc32)cc1 (stereo not shown) [Compound 24, (6-Bromo-2,3,4,9-tetrahydro-1H-carbazol-1-yl)-(4-fluoro-phenyl)-amine]",10 to 40
13,"O=C1c2ccccc2CN1C1CCCc2c1[nH]c1ccc(Br)cc21 (stereo not shown) [Compound 25, 2-(6-Bromo-2,3,4,9-tetrahydro-1H-carbazol-1-yl)-2,3-dihydro-isoindol-1-one]",10 to 40
14,"Brc1ccc2[nH]c3c(c2c1)CCCC3NC1CCC(c2ccccc2)CC1 (stereo not shown) [Compound 27, (6-Bromo-2,3,4,9-tetrahydro-1H-carbazol-1-yl)-(4-phenyl-cyclohexyl)-amine]",10 to 40
15,"O=C(NC1CCCc2c1[nH]c1ccc(Br)cc21)c1cccc(Oc2ccccc2)c1 (stereo not shown) [Compound 30, N-(6-Bromo-2,3,4,9-tetrahydro-1H-carbazol-1-yl)-3-phenoxy-benzamide]",10 to 40
16,"Brc1ccc2[nH]c3c(c2c1)CCCCC3Nc1ccccc1 (stereo not shown) [Compound 33, (2-Bromo-5,6,7,8,9,10-hexahydro-cyclohepta[b]indol-6-yl)-phenyl-amine]",10 to 40

# Second part, the molecule after the results:
row,EC50 [nM],Molecule
1,< 10,"O=C1c2sccc2CN1C1CCCc2c1[nH]c1ccc(Br)cc21 (stereo not shown) [Compound 5, 5-(6-Bromo-2,3,4,9-tetrahydro-1H-carbazol-1-yl)-4,5-dihydro-thieno[2,3-c]pyrrol-6-one]"
2,< 10,"Brc1ccc2[nH]c3c(c2c1)CCCC3Nc1ccc(Oc2ccccc2)cc1 (stereo not shown) [Compound 9, (6-Bromo-2,3,4,9-tetrahydro-1H-carbazol-1-yl)-(4-phenoxy-phenyl)-amine]"
3,< 10,"COc1cccc(NC2CCCc3c2[nH]c2ccc(Br)cc32)c1 (stereo not shown) [Compound 10, (6-Bromo-2,3,4,9-tetrahydro-1H-carbazol-1-yl)-(3-methoxy-phenyl)-amine]"
4,< 10,"Cc1ccc2[nH]c3c(c2c1)CCCC3Nc1ccccc1 (stereo not shown) [Compound 11, (6-Methyl-2,3,4,9-tetrahydro-1H-carbazol-1-yl)-phenyl-amine]"
5,< 10,"Fc1cccc(NC2CCCc3c2[nH]c2ccc(Br)cc32)c1 (stereo not shown) [Compound 12, (6-Bromo-2,3,4,9-tetrahydro-1H-carbazol-1-yl)-(3-fluoro-phenyl)-amine]"
6,< 10,"CC(=O)n1c2c(c3cc(Br)ccc31)CCCC2n1cccc1 (stereo not shown) [Compound 13, 1-(6-Bromo-1-pyrrol-1-yl-1,2,3,4-tetrahydro-carbazol-9-yl)ethanone]"
7,< 10,"FC(F)(F)c1ccc2[nH]c3c(c2c1)CCCC3Nc1ccccc1 (stereo not shown) [Compound 14, Phenyl-(6-trifluoromethyl-2,3,4,9-tetrahydro-1H-carbazol-1-yl)-amine]"
8,< 10,"Brc1ccc2[nH]c3c(c2c1)CCCC3c1ccccc1 (stereo not shown) [Compound 15, 6-Bromo-1-phenyl-2,3,4,9-tetrahydro-1H-carbazole]"
9,< 10,"Fc1ccccc1NC1CCCc2c1[nH]c1ccc(Br)cc21 (stereo not shown) [Compound 17, (6-Bromo-2,3,4,9-tetrahydro-1H-carbazol-1-yl)-(2-fluoro-phenyl)-amine]"
10,< 10,"FC(F)(F)Oc1ccc(NC2CCCc3c2[nH]c2ccc(Br)cc32)cc1 (stereo not shown) [Compound 19, (6-Bromo-2,3,4,9-tetrahydro-1H-carbazol-1-yl)-(4-trifluoromethoxy-phenyl)-amine]"
11,< 10,"O=C(NC1CCCc2c1[nH]c1ccc(Br)cc21)c1ccccc1 (stereo not shown) [Compound 21, N-(6-Bromo-2,3,4,9-tetrahydro-1H-carbazol-1-yl)-benzamide]"
12,< 10,"O=C(NC1CCCc2c1[nH]c1ccc(Br)cc21)c1cccc(Cl)c1 (stereo not shown) [Compound 22, N-(6-Bromo-2,3,4,9-tetrahydro-1H-carbazol-1-yl)-3-chloro-benzamide]"
13,10 to 40,"COC(=O)c1ccn(C2CCCc3c2[nH]c2ccc(Br)cc32)c1 (stereo not shown) [Compound 26, 1-(6-Bromo-2,3,4,9-tetrahydro-1H-carbazol-1-yl)-1H-pyrrole-3-carboxylic acid methyl ester]"
14,10 to 40,"Brc1ccc2[nH]c3c(c2c1)CCCC3Nc1ccc(-c2ccccc2)cc1 (stereo not shown) [Compound 28, Biphenyl-4-yl-(6-bromo-2,3,4,9-tetrahydro-1H-carbazol-1-yl)-amine]"
15,10 to 40,"Clc1ccccc1NC1CCCc2c1[nH]c1ccc(Br)cc21 (stereo not shown) [Compound 29, (6-Bromo-2,3,4,9-tetrahydro-1H-carbazol-1-yl)-(2-chloro-phenyl)-amine]"
16,10 to 40,"Brc1ccc2[nH]c3c(c2c1)CCCC3Nc1cnccn1 (stereo not shown) [Compound 31, (6-Bromo-2,3,4,9-tetrahydro-1H-carbazol-1-yl)-pyrazin-2-yl-amine]"
17,10 to 40,"Fc1cccc(NC2CCCc3c2[nH]c2ccc(Br)cc32)c1F (stereo not shown) [Compound 32, (6-Bromo-2,3,4,9-tetrahydro-1H-carbazol-1-yl)-(2,3-difluoro-phenyl)-amine]"

# Same assay, conditions: purchased compounds 156-188, hypoxic conditions, VEGF protein by ELISA, read-out: ELISA Activity
row,EC50 [nM],Molecule
1,> 1000,"3-(8-Cyclohexyl-1,2,3a,4,5,6- hexahydro-pyrazino[3,2,1- jk]carbazol-3-yl)-propionic acid [Compound 183]"
2,200 to 1000,"3-[(2,3,4,9-Tetrahydro- 1H-carbazol-1-ylamino)- methylene]-1,3-dihydro- indol-2-one [Compound 158]"

# Same assay, conditions: purchased compounds 156-188, hypoxic conditions, VEGF protein by ELISA, read-out: ELISA EC50
row,EC50 [nM],Molecule
1,> 10000,"3-(8-Cyclohexyl-1,2,3a,4,5,6- hexahydro-pyrazino[3,2,1- jk]carbazol-3-yl)-propionic acid [Compound 183]"
2,267,"3-[(2,3,4,9-Tetrahydro- 1H-carbazol-1-ylamino)- methylene]-1,3-dihydro- indol-2-one [Compound 158]"
